Laboratory results reported in patent publication US8242145B2, “Cyclic diaryl ether compounds as antagonists of prostaglandin D2 receptors” (Panmira Pharmaceuticals, LLC, priority 2008, dated 2012).
pIC50: −log10 of the molar value.

Tests used:
human DP1 receptor = target: T1, human DP1 receptor (Homo sapiens, UniProt Q13258); assay: DP1 radioligand binding assay using [3H]BWA868C; details: hDP1 binding
T1 construct: tissue Biological Specialty Corporation; host or cells: human platelets, membranes
T1 sequence (Q13258 1-359): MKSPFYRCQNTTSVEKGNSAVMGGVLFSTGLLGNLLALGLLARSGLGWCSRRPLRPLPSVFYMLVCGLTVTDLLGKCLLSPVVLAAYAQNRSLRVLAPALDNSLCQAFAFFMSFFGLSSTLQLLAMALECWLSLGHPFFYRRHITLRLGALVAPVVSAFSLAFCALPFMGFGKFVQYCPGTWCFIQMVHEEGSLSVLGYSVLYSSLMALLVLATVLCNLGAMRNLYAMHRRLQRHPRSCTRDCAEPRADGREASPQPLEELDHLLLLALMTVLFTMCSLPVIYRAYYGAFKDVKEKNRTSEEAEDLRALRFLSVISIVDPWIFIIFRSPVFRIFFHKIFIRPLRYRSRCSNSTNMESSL
Procedure: The ability of a compound to bind to the human DP1 receptor was evaluated via a radioligand membrane binding assay using the DP1 selective synthetic ligand [^3H]BW A868C. Packed human platelets (Biological Specialty Corporation), were resuspended in 6 volumes of Hepes/HBSS buffer (10 mM Hepes, 1 mM DTT in Hanks Balanced Salt Solution (HBSS)), lysed and centrifuged at 75,000×g to pellet the membranes. Membranes were resuspended in Hepes/HBSS buffer to approximately 12 mg protein/ml. Membranes (20 μg protein/well) are incubated in 96-well plates with 2 nM [^3H]BWA868C and test compound in Assay Buffer (50 mM Hepes, 10 mM MnCl2, 1 mM EDTA, plus or minus 0.2% human serum albumin, pH 7.4) for 60 minutes at room temperature. The reactions are terminated by rapid filtration through Whatman GF/C glass fibre filter plates. The filter plates were pre-soaked in 0.33% polethylenimine for 30 minutes at room temperature then washed in Wash Buffer (50 mM Hepes, 0.5 M NaCl pH 7.4) prior to harvesting. After harvesting, the filter plates are washed 3 times with 1 ml cold Wash Buffer then dried. Scintillant is then added to the plates and the radioactivity retained on the filters is determined on a Packard TopCount (Perkin Elmer). Specific binding is determined as total radioactive binding minus non-specific binding in the presence of 10 μM BW A868C. IC50s were determined using GraphPad prism analysis of drug titration curves.

human DP2 receptor = target: T2, human DP2 receptor (Homo sapiens, UniProt Q9Y5Y4); assay: DP2/CRTH2 radioligand binding assay using [3H]PGD2; details: hDP2 (CRTH2) binding assay
T2 construct: expressed in transfected cells
T2 sequence (Q9Y5Y4 1-395): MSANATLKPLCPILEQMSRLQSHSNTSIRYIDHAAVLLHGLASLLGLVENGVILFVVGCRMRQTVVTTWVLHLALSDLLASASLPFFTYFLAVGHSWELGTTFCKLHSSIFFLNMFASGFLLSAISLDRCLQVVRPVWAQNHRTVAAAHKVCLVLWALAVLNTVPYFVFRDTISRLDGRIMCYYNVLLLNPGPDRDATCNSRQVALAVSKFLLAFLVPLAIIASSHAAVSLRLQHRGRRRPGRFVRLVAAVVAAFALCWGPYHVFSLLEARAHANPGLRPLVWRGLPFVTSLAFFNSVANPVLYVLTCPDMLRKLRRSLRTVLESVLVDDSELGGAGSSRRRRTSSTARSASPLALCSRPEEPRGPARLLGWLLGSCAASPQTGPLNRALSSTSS
Procedure: The ability of a compound to bind to the human DP2 receptor is assessed via a radioligand binding assay using [^3H]PGD2. HEK293 cells stably expressing recombinant human DP2 are resuspended in 10 mM Hepes, 7.4 containing 1 mM DTT, lysed and centrifuged at 75,000×g to pellet the membranes. The membranes are resuspended in 10 mM Hepes, 7.4 containing 1 mM DTT and 10% glycerol to approximately 5 mg protein/ml. Membranes (2-10 μg protein/well) are incubated in 96-well plates with 1 nM [^3H]PGD2 and test compound in Assay Buffer (50 mM Hepes, 10 mM MnCl2, 1 mM EDTA, plus or minus 0.2% human serum albumin, pH 7.4) for 60 minutes at room temperature. The reactions are terminated by rapid filtration through Whatman GF/C glass fibre filter plates. The filter plates were pre-soaked in 0.33% polythylenimine for 30 minutes at room temperature then washed in Wash Buffer (50 mM Hepes, 0.5 M NaCl pH 7.4) prior to harvesting. After harvesting, the filter plates are washed 3 times with 1 ml cold Wash Buffer then dried. Scintillant is then added to the plates and the radioactivity retained on the filters is determined on a Packard TopCount (Perkin Elmer). Specific binding is determined as total radioactive binding minus non-specific binding in the presence of 10 μM PGD2. IC50s were determined using GraphPad prism analysis of drug titration curves.

[1] = target: T3, recombinant human CRTH2 receptor (Homo sapiens, UniProt Q9Y5Y4); assay: GTPγS binding assay; assay type: biochemical; details: +HSA; read-out: hDP2 GTPγS μM (+HSA)
T3 construct: expressed in transfected cells
T3 sequence (Q9Y5Y4 1-395): T2 sequence (Q9Y5Y4 1-395)
Procedure: The ability of a compound to inhibit binding of GTP to DP2 is assessed via a membrane GTPγS assay. CHO cells stably expressing the recombinant human CRTH2 receptor are resuspended in 10 mM Hepes, 7.4 containing 1 mM DTT, lysed and centrifuged at 75,000×g to pellet the membranes. The membranes are resuspended in 10 mM Hepes, 7.4 containing 1 mM DTT and 10% glycerol. Membranes (˜12.5 μg per well) are incubated in 96-well plates with 0.05 nM [^35S]-GTPγS, 80 nM PGD2, 5 μM GDP, and test compound in Assay Buffer (50 mM Hepes, pH 7.4, 100 mM NaCl, 5 mM MgCl2 and 0.2% human serum albumin) for 60 minutes at 30° C. The reactions are terminated by rapid filtration through Whatman GF/B glass fibre filter plates. The filter plates are washed 3 times with 1 ml cold Assay Buffer and dried. Scintillant is then added to the plates and the radioactivity retained on the filters is determined on a Packard TopCount (Perkin Elmer). Specific binding is determined as total radioactive binding minus non-specific binding in the absence of the ligand (80 nM PGD2). IC50s were determined using Graphpad prism analysis of drug titration curves.

| Structure (SMILES) | pIC50 (human DP1 receptor) | pIC50 (human DP2 receptor) | IC50 [1] [µM] |
| --- | --- | --- | --- |
| O=C(O)Cc1cccc(Oc2ccc(Br)cc2CN2CCOC2=O)c1 [Compound 1-3, {3-[4-Bromo-2-(2-oxo-oxazolidin-3-ylmethyl)-phenoxy]-phenyl}-acetic acid] | < 6.00 | > 6.52 | 0.3 to 1 |
| O=C(O)Cc1cccc(Oc2ccc(C(F)(F)F)cc2CN2CCOC2=O)c1 [Compound 1-5, {3-[2-(2-Oxo-oxazolidin-3-ylmethyl)-4-trifluoromethyl-phenoxy]-phenyl}-acetic acid] | < 6.00 | > 6.52 | < 0.3 |
| CCNC(=O)c1ccc(Oc2cccc(CC(=O)O)c2)c(CN2CCOC2=O)c1 [Compound 1-6, {3-[4-Ethylcarbamoyl-2-(2-oxo-oxazolidin-3-ylmethyl)-phenoxy]-phenyl}-acetic acid] | < 6.00 | 6.00 to 6.52 | 0.3 to 1 |
| O=C(O)Cc1cccc(Oc2ccc(-c3ccccc3)cc2CN2CCOC2=O)c1 [Compound 1-7, {3-[3-(2-Oxo-oxazolidin-3-ylmethyl)-biphenyl-4-yloxy]-phenyl}-acetic acid] | < 6.00 | > 6.52 | 0.3 to 1 |
| Cc1c[nH]c(-c2ccc(Oc3cccc(CC(=O)O)c3)c(CN3C(=O)O[C@H](c4ccccc4)[C@@H]3C)c2)n1 [Compound 1-72, {3-[4-(4-Methyl-1H-imidazol-2-yl)-2-((4S,5R)-4-methyl-2-oxo-5-phenyl-oxazolidin-3-ylmethyl)-phenoxy]-phenyl}-acetic acid] | < 6.00 | > 6.52 | – |
| C[C@H]1[C@@H](c2ccccc2)OC(=O)N1Cc1cc(-c2nccn2C)ccc1Oc1cccc(CC(=O)O)c1 [Compound 1-73, {3-[4-(1-Methyl-1H-imidazol-2-yl)-2-((4S,5R)-4-methyl-2-oxo-5-phenyl-oxazolidin-3-ylmethyl)-phenoxy]-phenyl}-acetic acid] | 6.00 to 6.52 | 6.00 to 6.52 | – |
| C[C@H]1[C@@H](c2ccccc2)OC(=O)N1Cc1cc(-c2nccs2)ccc1Oc1cccc(CC(=O)O)c1 [Compound 1-74, {3-[2-((4S,5R)-4-Methyl-2-oxo-5-phenyl-oxazolidin-3-ylmethyl)-4-thiazol-2-yl-phenoxy]-phenyl}-acetic acid] | > 6.52 | > 6.52 | – |
| COc1ccc(CC(=O)O)cc1Oc1ccc(N2CCOCC2)cc1CN1CCOC1=O [Compound 1-90, {4-Methoxy-3-[4-morpholin-4-yl-2-(2-oxo-oxazolidin-3-ylmethyl)-phenoxy]-phenyl}-acetic acid] | < 6.00 | < 6.00 | – |
| COc1ccc(CC(=O)O)cc1Oc1ccc(-c2ccc(S(C)(=O)=O)cc2)cc1CN1CCOC1=O [Compound 1-92, {3-[4′-Methanesulfonyl-3-(2-oxo-oxazolidin-3-ylmethyl)-biphenyl-4-yloxy]-4-methoxy-phenyl}-acetic acid] | < 6.00 | > 6.52 | – |
| COc1ccc(CC(=O)O)cc1Oc1ccc(-c2cccc(S(C)(=O)=O)c2)cc1CN1CCOC1=O [Compound 1-93, {3-[3′-Methanesulfonyl-3-(2-oxo-oxazolidin-3-ylmethyl)-biphenyl-4-yloxy]-4-methoxy-phenyl}-acetic acid] | < 6.00 | > 6.52 | – |
| COc1ccc(CC(=O)O)cc1Oc1ccc(-c2ccccc2S(C)(=O)=O)cc1CN1CCOC1=O [Compound 1-94, {3-[2′-Methanesulfonyl-3-(2-oxo-oxazolidin-3-ylmethyl)-biphenyl-4-yloxy]-4-methoxy-phenyl}-acetic acid] | < 6.00 | > 6.52 | – |
| COc1ccc(CC(=O)O)cc1Oc1ccc(-c2ccccc2)cc1CN1CCOC1=O [Compound 1-95, {4-Methoxy-3-[3-(2-oxo-oxazolidin-3-ylmethyl)-biphenyl-4-yloxy]-phenyl}-acetic acid] | < 6.00 | > 6.52 | – |
| COc1ccc(CC(=O)O)cc1Oc1ccc(-c2cnn(C)c2)cc1CN1CCOC1=O [Compound 1-96, {4-Methoxy-3-[4-(1-methyl-1H-pyrazol-4-yl)-2-(2-oxo-oxazolidin-3-ylmethyl)-phenoxy]-phenyl}-acetic acid] | < 6.00 | > 6.52 | – |
| COc1ccc(CC(=O)O)cc1Oc1ccc(NC(=O)c2cc(C(F)(F)F)cc(C(F)(F)F)c2)cc1CN1CCOC1=O [Compound 1-97, {3-[4-(3,5-Bis-trifluoromethyl-benzoylamino)-2-(2-oxo-oxazolidin-3-ylmethyl)-phenoxy]-4-methoxy-phenyl}-acetic acid] | < 6.00 | > 6.52 | – |
| COc1ccc(CC(=O)O)cc1Oc1ccc(NC(=O)c2cc(C(F)(F)F)ccc2F)cc1CN1CCOC1=O [Compound 1-98, {3-[4-(2-Fluoro-5-trifluoromethyl-benzoylamino)-2-(2-oxo-oxazolidin-3-ylmethyl)-phenoxy]-4-methoxy-phenyl}-acetic acid] | < 6.00 | > 6.52 | – |
| COc1ccc(CC(=O)O)cc1Oc1ccc(NS(=O)(=O)c2ccc(Cl)cc2)cc1CN1CCOC1=O [Compound 1-99, {3-[4-(4-Chloro-benzenesulfonylamino)-2-(2-oxo-oxazolidin-3-ylmethyl)-phenoxy]-4-methoxy-phenyl}-acetic acid] | < 6.00 | > 6.52 | – |
| O=C(O)Cc1cccc(Oc2ccc(Br)cc2CN2CCCC2=O)c1 [Compound 3-1, {3-[4-Bromo-2-(2-oxo-pyrrolidin-1-ylmethyl)-phenoxy]-phenyl}-acetic acid] | < 6.00 | < 6.00 | – |
| COc1ccc(CC(=O)O)cc1Oc1ccc(Br)cc1CN1CCNC1=O [Compound 3-3, {3-[4-Bromo-2-(2-oxo-imidazolidin-1-ylmethyl)-phenoxy]-4-methoxy-phenyl}-acetic acid] | < 6.00 | 6.00 to 6.52 | – |
| COc1ccc(CC(=O)O)cc1Oc1ccc(Br)cc1CN1CCN(C)C1=O [Compound 3-4, {3-[4-Bromo-2-(3-methyl-2-oxo-imidazolidin-1-ylmethyl)-phenoxy]-4-methoxy-phenyl}-acetic acid] | < 6.00 | < 6.00 | – |
